The nature of assay [1]: Cytotoxicity activity was measured against human breast cancer cell line MCF-7 with respect to ED50 of paclitaxel (2 nM). Type of assay: functional, MCF7.
The subject of assay [2] is MCF7. Put plainly: Effect on microtubule assembly in MCF-7 cells, compared to paclitaxel (0.3 uM), given as ratio of respective ED50. Type of assay: functional, Homo sapiens.
Assay [3] can be described thus: Cytotoxicity activity was measured against resistant human breast cancer cell line MCF-7 with respect to ED50 of paclitaxel (2200-3700 nM). Type of assay: functional, MCF7.
In assay [4] the test system is MCF7. The assay is described as follows: Cytotoxicity activity was measured against human breast cancer cell line MCF-7; Did not inhibit proliferation at maximum concentration tested. The class given is functional. The settings on record: read-out: ED50 (the source's name).
The test system of assay [5] is MCF7. The assay is described as follows: Cytotoxicity activity was measured against resistant human breast cancer cell line MCF-7; Did not inhibit proliferation at maximum concentration tested. Type of assay: functional. The settings on record: read-out: ED50 (the source's name).

Drawing on ChEMBL document CHEMBL1130668, “Synthesis and evaluation of paclitaxel C7 derivatives: solution phase synthesis of combinatorial libraries” (1998), this text covers Ratio and EC50 for 17 compounds.

For the compound `CC(=O)O[C@H]1C(=O)[C@]2(C)[C@@H](OC(=O)c3ccc(C)cc3)C[C@H]3OC[C@@]3(OC(C)=O)[C@H]2[C@H](OC(=O)c2ccccc2)[C@]2(O)C[C@H](OC(=O)[C@H](O)[C@@H](NC(=O)c3ccccc3)c3ccccc3)C(C)=C1C2(C)C`, the Ratio in assay [1] was found to be 31; in the assay with MCF7 [2] it was 25; in assay [3] it was 0.9.
The like results for `COCC(=O)O[C@H]1C[C@H]2OC[C@@]2(OC(C)=O)[C@H]2[C@H](OC(=O)c3ccccc3)[C@]3(O)C[C@H](OC(=O)[C@H](O)[C@@H](NC(=O)c4ccccc4)c4ccccc4)C(C)=C([C@@H](OC(C)=O)C(=O)[C@]12C)C3(C)C` [PACLITAXEL C7 METHOXYACETIC ACID ESTER] were, in that order, 14, 1 and 1.3.
As to `CC(=O)O[C@H]1C(=O)[C@]2(C)[C@@H](OC(=O)c3ccsc3)C[C@H]3OC[C@@]3(OC(C)=O)[C@H]2[C@H](OC(=O)c2ccccc2)[C@]2(O)C[C@H](OC(=O)[C@H](O)[C@@H](NC(=O)c3ccccc3)c3ccccc3)C(C)=C1C2(C)C`, the Ratio in the assay with MCF7 [2] amounted to 1.7; in assay [3] it was 1.3. For the same compound, the EC50 with MCF7 [4] was more than 80 nM.
Regarding `CC(=O)O[C@H]1C(=O)[C@]2(C)[C@@H](OC(=O)c3ccc([N+](=O)[O-])o3)C[C@H]3OC[C@@]3(OC(C)=O)[C@H]2[C@H](OC(=O)c2ccccc2)[C@]2(O)C[C@H](OC(=O)[C@H](O)[C@@H](NC(=O)c3ccccc3)c3ccccc3)C(C)=C1C2(C)C`, the figures for the Ratio (in assay [1]; with MCF7 [2]) were 12 and 8.7, respectively. In addition, in the assay with MCF7 [5], the EC50 is more than 5000 nM.
On to `CC(=O)O[C@H]1C(=O)[C@]2(C)[C@@H](OC(=O)C(C)(C)C)C[C@H]3OC[C@@]3(OC(C)=O)[C@H]2[C@H](OC(=O)c2ccccc2)[C@]2(O)C[C@H](OC(=O)[C@H](O)[C@@H](NC(=O)c3ccccc3)c3ccccc3)C(C)=C1C2(C)C` [PACLITAXEL C7 TRIMETHYLACETIC ACID ESTER], for which the results for the Ratio (in assay [1]; with MCF7 [2]; in assay [3]) were 3, 8.3 and 1.5, respectively.
As to `CC(=O)O[C@H]1C(=O)[C@]2(C)[C@@H](OC(=O)C3CCCC3)C[C@H]3OC[C@@]3(OC(C)=O)[C@H]2[C@H](OC(=O)c2ccccc2)[C@]2(O)C[C@H](OC(=O)[C@H](O)[C@@H](NC(=O)c3ccccc3)c3ccccc3)C(C)=C1C2(C)C` [PACLITAXEL C7 CYCLOPENTANECARBOXYLIC ACID ESTER], the Ratio in assay [1] amounted to 37; in the assay with MCF7 [2], 1; in assay [3], 1.3.
The like results for `CC(=O)O[C@H]1C(=O)[C@]2(C)[C@@H](OC(=O)c3ccccc3)C[C@H]3OC[C@@]3(OC(C)=O)[C@H]2[C@H](OC(=O)c2ccccc2)[C@]2(O)C[C@H](OC(=O)[C@H](O)[C@@H](NC(=O)c3ccccc3)c3ccccc3)C(C)=C1C2(C)C` [PACLITAXEL C7 BENZOIC ACID ESTER] were, in that order, 14, 8.3 and 1.1.
The like results for `CC(=O)OCC(=O)O[C@H]1C[C@H]2OC[C@@]2(OC(C)=O)[C@H]2[C@H](OC(=O)c3ccccc3)[C@]3(O)C[C@H](OC(=O)[C@H](O)[C@@H](NC(=O)c4ccccc4)c4ccccc4)C(C)=C([C@@H](OC(C)=O)C(=O)[C@]12C)C3(C)C` [PACLITAXEL C7 ACETOXYACETIC ACID ESTER] were, in that order, 17, 1.7 and 1.8.
Regarding `CSCC(=O)O[C@H]1C[C@H]2OC[C@@]2(OC(C)=O)[C@H]2[C@H](OC(=O)c3ccccc3)[C@]3(O)C[C@H](OC(=O)[C@H](O)[C@@H](NC(=O)c4ccccc4)c4ccccc4)C(C)=C([C@@H](OC(C)=O)C(=O)[C@]12C)C3(C)C` [PACLITAXEL C7 METHYLTHIOACETIC ACID ESTER], the Ratio in assay [1] was found to be 10; with MCF7 [2] it was 0.7; in assay [3], 0.5.
For `CC(=O)O[C@H]1C(=O)[C@]2(C)[C@@H](OC(C)=O)C[C@H]3OC[C@@]3(OC(C)=O)[C@H]2[C@H](OC(=O)c2ccccc2)[C@]2(O)C[C@H](OC(=O)[C@H](O)[C@@H](NC(=O)c3ccccc3)c3ccccc3)C(C)=C1C2(C)C` [PACLITAXEL C7 ACETYLCARBOXYLIC ACID ESTER], in that order: 8, 0.7 and 0.7.
As to `CC(=O)O[C@H]1C(=O)[C@]2(C)[C@@H](OC(=O)CC#N)C[C@H]3OC[C@@]3(OC(C)=O)[C@H]2[C@H](OC(=O)c2ccccc2)[C@]2(O)C[C@H](OC(=O)[C@H](O)[C@@H](NC(=O)c3ccccc3)c3ccccc3)C(C)=C1C2(C)C` [PACLITAXEL C7 CYANOACETIC ACID ESTER], the Ratio in assay [1] was determined as 8; in the assay with MCF7 [2] it was 1.3. Besides, the EC50 in the assay on MCF7 [4] was more than 5000 nM.
For the compound `CC(=O)O[C@H]1C(=O)[C@]2(C)[C@@H](OC(=O)C3CC3)C[C@H]3OC[C@@]3(OC(C)=O)[C@H]2[C@H](OC(=O)c2ccccc2)[C@]2(O)C[C@H](OC(=O)[C@H](O)[C@@H](NC(=O)c3ccccc3)c3ccccc3)C(C)=C1C2(C)C` [PACLITAXEL C7 CYCLOPROPANECARBOXYLIC ACID ESTER], the Ratio in assay [1] stood at 35; with MCF7 [2] it was 22. Also, in the assay with MCF7 [5], the EC50 was more than 5000 nM.
In the case of `COc1ccc(C(=O)O[C@H]2C[C@H]3OC[C@@]3(OC(C)=O)[C@H]3[C@H](OC(=O)c4ccccc4)[C@]4(O)C[C@H](OC(=O)[C@H](O)[C@@H](NC(=O)c5ccccc5)c5ccccc5)C(C)=C([C@@H](OC(C)=O)C(=O)[C@]23C)C4(C)C)cc1`, the figures for the Ratio (in the assay with MCF7 [2]; in assay [3]) were 22 and 2.2, respectively. For the same compound, the EC50 in the assay with MCF7 [4] was more than 80 nM.
As to `CC(=O)O[C@H]1C(=O)[C@]2(C)[C@@H](OC(=O)c3cccn3C)C[C@H]3OC[C@@]3(OC(C)=O)[C@H]2[C@H](OC(=O)c2ccccc2)[C@]2(O)C[C@H](OC(=O)[C@H](O)[C@@H](NC(=O)c3ccccc3)c3ccccc3)C(C)=C1C2(C)C`, the Ratio in the assay with MCF7 [2] is given as 8.3; in assay [3], 1.2. In the assay with MCF7 [4], the EC50 was more than 80 nM.
Consider `CC(=O)O[C@H]1C(=O)[C@]2(C)[C@@H](OC(=O)c3ccc(Cl)cc3)C[C@H]3OC[C@@]3(OC(C)=O)[C@H]2[C@H](OC(=O)c2ccccc2)[C@]2(O)C[C@H](OC(=O)[C@H](O)[C@@H](NC(=O)c3ccccc3)c3ccccc3)C(C)=C1C2(C)C`, for which the Ratio is listed as 13 in the assay on MCF7 [2] and 1.6 in assay [3]. In the assay with MCF7 [4], the EC50 is more than 80 nM.
On to `CC(=O)O[C@H]1C(=O)[C@]2(C)[C@@H](OC(=O)c3ccco3)C[C@H]3OC[C@@]3(OC(C)=O)[C@H]2[C@H](OC(=O)c2ccccc2)[C@]2(O)C[C@H](OC(=O)[C@H](O)[C@@H](NC(=O)c3ccccc3)c3ccccc3)C(C)=C1C2(C)C`, for which the Ratio is recorded as 27 in assay [1], 22 in the assay on MCF7 [2] and 1 in assay [3].
For `CCCCC(=O)O[C@H]1C[C@H]2OC[C@@]2(OC(C)=O)[C@H]2[C@H](OC(=O)c3ccccc3)[C@]3(O)C[C@H](OC(=O)[C@H](O)[C@@H](NC(=O)c4ccccc4)c4ccccc4)C(C)=C([C@@H](OC(C)=O)C(=O)[C@]12C)C3(C)C` [PACLITAXEL C7 VALERIC ACID ESTER], in that order: 10, 0.7 and 0.4.
